Reference: ChEMBL document CHEMBL1933055, “Discovery of bacterial NAD⁺-dependent DNA ligase inhibitors: improvements in clearance of adenosine series” (Bioorg Med Chem Lett, 2012)
≈ marks a conversion by molar mass, not a printed value.

What was measured:
[1] = Plasma clearance in rat at 3 mg/kg, iv; assay type: ADME, organism-based; set-up: dose 3 mg/kg, route intravenous
Streptococcus pneumoniae [2] = assay: Antimicrobial activity against Streptococcus pneumoniae D39; assay type: functional
[3] = Renal clearance in iv dosed rat; assay type: ADME, organism-based, Kidney; details: in vivo
Streptococcus pneumoniae [4] = assay: Antibacterial activity against Streptococcus pneumoniae; assay type: functional
[5] = Lipophilicity, log D of the compound; details: octanol/water
[6] = Total clearance in iv dosed rat; assay type: ADME, organism-based; details: in vivo
[7] = Solubility of the compound; assay type: physicochemical
[8] = Fraction unbound in human plasma; assay type: ADME, cell-free
Rattus norvegicus = assay: Hepatic blood flow in iv dosed rat; assay type: ADME, organism-based, Liver; details: in vivo
[9] = Oral bioavailability in rat; assay type: ADME, organism-based; details: in vivo
[10] = Clearance in iv dosed dog; assay type: ADME, organism-based, Canis lupus familiaris; details: in vivo
Canis familiaris = assay: Hepatic blood flow in iv dosed dog; assay type: ADME, organism-based, Canis lupus familiaris, Liver; details: in vivo
[11] = Oral bioavailability in dog; assay type: ADME, organism-based, Canis lupus familiaris; details: in vivo

SMILES | clearance [1] [mL/min/kg] | MIC (Streptococcus pneumoniae [2]) [µg/mL] | CL renal [3] [mL/min/kg] | MIC (Streptococcus pneumoniae [4]) [µg/mL] | logD [5] | clearance [6] [mL/min/kg] | other results
Nc1nc(OC2CCCC2)nc2c1ncn2[C@@H]1O[C@H](CF)[C@@H](O)[C@H]1O | 83 | 4 (≈ 11.3 µM) |  |  |  |  | 
Nc1nc(OCC2CCC2)nc2c1ncn2[C@@H]1O[C@H](CF)[C@@H](O)[C@H]1O | 73 | 2 (≈ 5.66 µM) |  |  |  |  | 
C[C@H]1O[C@@H](n2cnc3c(N)nc(OCC4CC45CC5)nc32)[C@H](O)[C@@H]1O (some centres not stated) | 96 | 1 (≈ 2.88 µM) |  |  |  |  | 
Nc1nc(OCC2CC2)nc2c1ncn2[C@@H]1O[C@H](CF)[C@@H](O)[C@H]1O |  |  | 13 | 8 (≈ 23.6 µM) |  | 49 | 
CC1CC1COc1nc(N)c2ncn([C@@H]3O[C@H](CF)[C@@H](O)[C@H]3O)c2n1 (some centres not stated) |  |  | 11 | 4 (≈ 11.3 µM) |  | 115 | 
C[C@H]1O[C@@H](n2cnc3c(N)nc(OC(C4CC4)C(F)(F)F)nc32)[C@H](O)[C@@H]1O (some centres not stated) |  |  | 5 | 8 (≈ 20.5 µM) | 1.8 | 73 | 
C[C@H]1O[C@@H](n2cnc3c(N)nc(OCC4CC(F)(F)C4(F)F)nc32)[C@H](O)[C@@H]1O (some centres not stated) |  |  | 17 | 4 (≈ 9.82 µM) | 1.4 | 85 | 
C[C@H]1O[C@@H](n2cnc3c(N)nc(OC4CC(F)(F)C4(F)F)nc32)[C@H](O)[C@@H]1O (some centres not stated) |  |  | 16 | 16 (≈ 40.7 µM) | 1.3 | 23 | 
C[C@H]1O[C@@H](n2cnc3c(N)nc(OCC4CCC(F)(F)CC4)nc32)[C@H](O)[C@@H]1O |  |  | 8 | 16 (≈ 40.1 µM) | 1.7 | 58 | 

Second part, led by results:

clearance [1] [mL/min/kg] | MIC (Streptococcus pneumoniae [2]) [µg/mL] | CL renal [3] [mL/min/kg] | MIC (Streptococcus pneumoniae [4]) [µg/mL] | logD [5] | clearance [6] [mL/min/kg] | SMILES | other results
43 | 2 (≈ 5.96 µM) |  |  |  |  | C[C@H]1O[C@@H](n2cnc3c(N)nc(OC4CCCC4)nc32)[C@H](O)[C@@H]1O | 
89 | 1 (≈ 2.75 µM) |  |  |  |  | C[C@H]1O[C@@H](n2cnc3c(N)nc(O[C@H]4CC[C@H](C)CC4)nc32)[C@H](O)[C@@H]1O | 
50 | 2 (≈ 5.76 µM) |  |  |  |  | C[C@H]1O[C@@H](n2cnc3c(N)nc(OC4C[C@@H]5C[C@@H]5C4)nc32)[C@H](O)[C@@H]1O (some centres not stated) | 
 |  | 13 | 16 (≈ 47.4 µM) | -0.06 | 67 | C[C@H]1O[C@@H](n2cnc3c(N)nc(OC4CCOC4)nc32)[C@H](O)[C@@H]1O (some centres not stated) | 
 |  | 2 | 2 (≈ 4.79 µM) | 2.2 | 27 | C[C@H]1O[C@@H](n2cnc3c(N)nc(O[C@H]4CC[C@H](C(F)(F)F)CC4)nc32)[C@H](O)[C@@H]1O | solubility [7]: 800 µM (≈ 334 µg/mL); fraction unbound [8]: 0.2; QH (Rattus norvegicus): 39%; bioavailability [9]: 86%; clearance [10]: 7.7 mL/min/kg; QH (Canis familiaris): 20%; bioavailability [11]: 88%
 |  | 15 | 8 (≈ 20.8 µM) |  | 33 | C[C@H]1O[C@@H](n2cnc3c(N)nc(OC4CCC(F)(F)CC4)nc32)[C@H](O)[C@@H]1O | 
